From ChEMBL document CHEMBL4507265 (2021)

Tests used:
[1] = target: Vascular endothelial growth factor receptor 3 (Homo sapiens) (UniProt P35916); settings: Compound concentration 1000.0 nM
[2] = target: Serine/threonine-protein kinase PAK 4 (Homo sapiens) (UniProt O96013); settings: Compound concentration 1000.0 nM
[3] = target: Serine/threonine-protein kinase LATS2 (Homo sapiens) (UniProt Q9NRM7); settings: Compound concentration 1000.0 nM
[4] = target: Insulin receptor-related protein (Homo sapiens) (UniProt P14616); settings: Compound concentration 1000.0 nM
[5] = test system: Epidermal growth factor receptor (Homo sapiens), P00533 [G719C]; settings: Compound concentration 1000.0 nM
[6] = target: Serine/threonine-protein kinase 32B (Homo sapiens) (UniProt Q9NY57); settings: Compound concentration 1000.0 nM
[7] = target: Mitogen-activated protein kinase kinase kinase 14 (Homo sapiens) (UniProt Q99558); settings: Compound concentration 1000.0 nM
[8] = target: Phosphorylase b kinase gamma catalytic chain, skeletal muscle/heart isoform (Homo sapiens) (UniProt Q16816); settings: Compound concentration 1000.0 nM
[9] = target: Casein kinase I isoform alpha (Homo sapiens) (UniProt P48729); settings: Compound concentration 1000.0 nM
[10] = target: Ribosomal protein S6 kinase alpha-4 (Homo sapiens) (UniProt O75676); settings: Compound concentration 1000.0 nM
[11] = target: Serine/threonine-protein kinase D1 (Homo sapiens) (UniProt Q15139); settings: Compound concentration 1000.0 nM
[12] = target: Serine/threonine-protein kinase WNK4 (Homo sapiens) (UniProt Q96J92); settings: Compound concentration 1000.0 nM
[13] = target: Serine/threonine-protein kinase DCLK3 (Homo sapiens) (UniProt Q9C098); settings: Compound concentration 1000.0 nM
[14] = test system: Epidermal growth factor receptor (Homo sapiens), P00533 [UNDEFINED MUTATION]; settings: Compound concentration 1000.0 nM
[15] = target: Ribosomal protein S6 kinase alpha-3 (Homo sapiens) (UniProt P51812); settings: Compound concentration 1000.0 nM
[16] = target: Mitogen-activated protein kinase kinase kinase 6 (Homo sapiens) (UniProt O95382); settings: Compound concentration 1000.0 nM
[17] = target: STE20/SPS1-related proline-alanine-rich protein kinase (Homo sapiens) (UniProt Q9UEW8); settings: Compound concentration 1000.0 nM
[18] = target: Mitogen-activated protein kinase kinase kinase 12 (Homo sapiens) (UniProt Q12852); settings: Compound concentration 1000.0 nM
[19] = target: Tyrosine-protein kinase Srms (Homo sapiens) (UniProt Q9H3Y6); settings: Compound concentration 1000.0 nM
[20] = target: Serine/threonine-protein kinase Nek7 (Homo sapiens) (UniProt Q8TDX7); settings: Compound concentration 1000.0 nM
[21] = target: Phosphatidylinositol 4,5-bisphosphate 3-kinase catalytic subunit gamma isoform (Homo sapiens) (UniProt P48736); settings: Compound concentration 1000.0 nM
[22] = target: Transient receptor potential cation channel subfamily M member 6 (Homo sapiens) (UniProt Q9BX84); settings: Compound concentration 1000.0 nM
[23] = target: Cyclin-dependent kinase 11A (Homo sapiens) (UniProt Q9UQ88); settings: Compound concentration 1000.0 nM
[24] = target: Tyrosine-protein kinase Lyn (Homo sapiens) (UniProt P07948); settings: Compound concentration 1000.0 nM
[25] = target: Phosphatidylinositol 3-kinase C2 domain-containing subunit gamma (Homo sapiens) (UniProt O75747); settings: Compound concentration 1000.0 nM
[26] = target: Insulin-like growth factor 1 receptor (Homo sapiens) (UniProt P08069); settings: Compound concentration 1000.0 nM
[27] = target: Proto-oncogene tyrosine-protein kinase Src (Homo sapiens) (UniProt P12931); settings: Compound concentration 1000.0 nM
[28] = test system: Epidermal growth factor receptor (Homo sapiens), P00533 [T790M]; settings: Compound concentration 1000.0 nM
[29] = target: Tyrosine-protein kinase Lck (Homo sapiens) (UniProt P06239); settings: Compound concentration 1000.0 nM
[30] = target: T1, D(4) dopamine receptor (Homo sapiens) (UniProt P21917); settings: Compound concentration 10.0 uM
T1 sequence (whole entry): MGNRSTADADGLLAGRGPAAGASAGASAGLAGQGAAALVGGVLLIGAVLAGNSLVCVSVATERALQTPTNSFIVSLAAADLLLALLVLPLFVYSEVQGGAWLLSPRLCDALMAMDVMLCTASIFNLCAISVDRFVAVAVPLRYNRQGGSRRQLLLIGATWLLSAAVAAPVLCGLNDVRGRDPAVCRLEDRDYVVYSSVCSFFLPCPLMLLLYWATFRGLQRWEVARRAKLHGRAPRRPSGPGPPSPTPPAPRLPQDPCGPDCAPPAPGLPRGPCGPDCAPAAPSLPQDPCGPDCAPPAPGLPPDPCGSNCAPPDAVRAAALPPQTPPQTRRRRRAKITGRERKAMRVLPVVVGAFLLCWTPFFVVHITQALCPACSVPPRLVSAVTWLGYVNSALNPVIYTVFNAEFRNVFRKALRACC

[31] = target: Dual specificity mitogen-activated protein kinase kinase 4 (Homo sapiens) (UniProt P45985); settings: Compound concentration 1000.0 nM
[32] = target: Glycogen synthase kinase-3 alpha (Homo sapiens) (UniProt P49840); settings: Compound concentration 1000.0 nM
[33] = target: Serine/threonine-protein kinase PLK4 (Homo sapiens) (UniProt O00444); settings: Compound concentration 1000.0 nM
[34] = target: Sodium-dependent serotonin transporter (Homo sapiens) (UniProt P31645); settings: Compound concentration 10.0 uM
[35] = test system: Receptor-type tyrosine-protein kinase FLT3 (Homo sapiens), P36888 [N841I]; settings: Compound concentration 1000.0 nM
[36] = target: Protein kinase C eta type (Homo sapiens) (UniProt P24723); settings: Compound concentration 1000.0 nM
[37] = target: Serine/threonine-protein kinase Sgk2 (Homo sapiens) (UniProt Q9HBY8); settings: Compound concentration 1000.0 nM
[38] = target: Muscarinic acetylcholine receptor M4 (Homo sapiens) (UniProt P08173); settings: Compound concentration 10.0 uM
[39] = target: Mast/stem cell growth factor receptor Kit (Homo sapiens) (UniProt P10721); settings: Compound concentration 1000.0 nM

Sequence of Proto-oncogene tyrosine-protein kinase Src (Homo sapiens) (P12931 2-536 limits assumed): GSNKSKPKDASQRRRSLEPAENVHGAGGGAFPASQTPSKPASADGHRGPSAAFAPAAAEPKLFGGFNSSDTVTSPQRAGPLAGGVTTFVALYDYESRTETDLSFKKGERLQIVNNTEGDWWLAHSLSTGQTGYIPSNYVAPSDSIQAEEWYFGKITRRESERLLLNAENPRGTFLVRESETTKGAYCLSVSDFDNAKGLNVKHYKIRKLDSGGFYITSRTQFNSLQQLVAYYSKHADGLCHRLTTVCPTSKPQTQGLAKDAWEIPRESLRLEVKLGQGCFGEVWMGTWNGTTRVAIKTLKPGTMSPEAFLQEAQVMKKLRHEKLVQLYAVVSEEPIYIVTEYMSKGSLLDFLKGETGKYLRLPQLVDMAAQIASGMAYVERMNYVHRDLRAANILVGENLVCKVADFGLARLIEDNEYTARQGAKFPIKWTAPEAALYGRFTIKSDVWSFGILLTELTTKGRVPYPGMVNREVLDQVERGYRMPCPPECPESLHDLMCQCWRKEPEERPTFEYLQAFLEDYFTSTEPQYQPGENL
Sequence of Muscarinic acetylcholine receptor M4 (Homo sapiens) (P08173 whole entry): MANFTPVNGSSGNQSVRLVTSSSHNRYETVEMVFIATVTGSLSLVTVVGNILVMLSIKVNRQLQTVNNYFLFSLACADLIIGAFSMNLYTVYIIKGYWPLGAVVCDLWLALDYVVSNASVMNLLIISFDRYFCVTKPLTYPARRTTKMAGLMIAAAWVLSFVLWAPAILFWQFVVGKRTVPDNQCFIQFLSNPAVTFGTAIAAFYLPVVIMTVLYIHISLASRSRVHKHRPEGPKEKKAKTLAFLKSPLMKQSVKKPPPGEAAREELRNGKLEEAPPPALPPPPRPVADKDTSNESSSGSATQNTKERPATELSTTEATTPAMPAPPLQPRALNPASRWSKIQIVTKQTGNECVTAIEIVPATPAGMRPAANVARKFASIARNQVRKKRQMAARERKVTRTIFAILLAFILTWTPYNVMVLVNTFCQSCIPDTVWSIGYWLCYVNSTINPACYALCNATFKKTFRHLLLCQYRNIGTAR
Sequence of Casein kinase I isoform alpha (Homo sapiens) (P48729 2-337 limits assumed): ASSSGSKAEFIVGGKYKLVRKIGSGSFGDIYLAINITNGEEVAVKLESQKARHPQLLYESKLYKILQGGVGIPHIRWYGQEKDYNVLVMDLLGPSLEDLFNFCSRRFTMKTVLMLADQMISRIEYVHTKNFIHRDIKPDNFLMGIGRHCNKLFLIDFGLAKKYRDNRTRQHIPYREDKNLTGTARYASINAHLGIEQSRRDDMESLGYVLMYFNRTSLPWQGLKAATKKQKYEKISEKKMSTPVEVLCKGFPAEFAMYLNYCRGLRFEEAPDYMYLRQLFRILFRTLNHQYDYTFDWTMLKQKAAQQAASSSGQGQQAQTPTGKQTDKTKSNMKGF
Sequence of Phosphatidylinositol 4,5-bisphosphate 3-kinase catalytic subunit gamma isoform (Homo sapiens) (P48736 whole entry, looked up, canonical isoform): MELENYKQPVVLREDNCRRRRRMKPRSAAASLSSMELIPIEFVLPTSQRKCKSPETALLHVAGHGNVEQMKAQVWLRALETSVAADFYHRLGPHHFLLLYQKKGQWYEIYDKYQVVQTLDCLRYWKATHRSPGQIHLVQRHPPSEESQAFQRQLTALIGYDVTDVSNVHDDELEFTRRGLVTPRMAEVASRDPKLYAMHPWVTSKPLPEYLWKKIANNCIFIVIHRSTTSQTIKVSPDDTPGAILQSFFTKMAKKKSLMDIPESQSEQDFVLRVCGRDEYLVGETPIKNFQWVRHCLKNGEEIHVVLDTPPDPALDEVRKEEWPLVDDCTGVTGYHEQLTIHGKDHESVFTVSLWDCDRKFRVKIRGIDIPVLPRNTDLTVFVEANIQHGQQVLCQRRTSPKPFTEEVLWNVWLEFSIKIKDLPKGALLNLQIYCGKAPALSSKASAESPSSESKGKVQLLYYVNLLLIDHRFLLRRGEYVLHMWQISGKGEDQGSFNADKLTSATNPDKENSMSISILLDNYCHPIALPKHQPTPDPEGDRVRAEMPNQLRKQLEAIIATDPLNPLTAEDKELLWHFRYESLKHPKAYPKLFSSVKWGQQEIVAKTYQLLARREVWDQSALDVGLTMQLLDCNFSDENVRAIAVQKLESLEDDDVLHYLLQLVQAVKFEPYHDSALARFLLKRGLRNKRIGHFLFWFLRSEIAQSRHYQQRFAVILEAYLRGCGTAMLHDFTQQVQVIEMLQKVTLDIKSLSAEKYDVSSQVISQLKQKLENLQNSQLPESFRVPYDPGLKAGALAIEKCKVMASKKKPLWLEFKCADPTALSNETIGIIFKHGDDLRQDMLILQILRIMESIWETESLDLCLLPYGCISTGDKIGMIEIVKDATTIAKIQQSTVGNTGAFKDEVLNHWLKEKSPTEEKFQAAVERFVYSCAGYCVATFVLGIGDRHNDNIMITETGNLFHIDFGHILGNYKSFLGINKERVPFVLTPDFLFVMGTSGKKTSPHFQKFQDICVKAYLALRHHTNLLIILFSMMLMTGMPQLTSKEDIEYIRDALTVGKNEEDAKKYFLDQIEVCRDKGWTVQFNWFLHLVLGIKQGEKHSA
Sequence of Serine/threonine-protein kinase WNK4 (Homo sapiens) (Q96J92 whole entry): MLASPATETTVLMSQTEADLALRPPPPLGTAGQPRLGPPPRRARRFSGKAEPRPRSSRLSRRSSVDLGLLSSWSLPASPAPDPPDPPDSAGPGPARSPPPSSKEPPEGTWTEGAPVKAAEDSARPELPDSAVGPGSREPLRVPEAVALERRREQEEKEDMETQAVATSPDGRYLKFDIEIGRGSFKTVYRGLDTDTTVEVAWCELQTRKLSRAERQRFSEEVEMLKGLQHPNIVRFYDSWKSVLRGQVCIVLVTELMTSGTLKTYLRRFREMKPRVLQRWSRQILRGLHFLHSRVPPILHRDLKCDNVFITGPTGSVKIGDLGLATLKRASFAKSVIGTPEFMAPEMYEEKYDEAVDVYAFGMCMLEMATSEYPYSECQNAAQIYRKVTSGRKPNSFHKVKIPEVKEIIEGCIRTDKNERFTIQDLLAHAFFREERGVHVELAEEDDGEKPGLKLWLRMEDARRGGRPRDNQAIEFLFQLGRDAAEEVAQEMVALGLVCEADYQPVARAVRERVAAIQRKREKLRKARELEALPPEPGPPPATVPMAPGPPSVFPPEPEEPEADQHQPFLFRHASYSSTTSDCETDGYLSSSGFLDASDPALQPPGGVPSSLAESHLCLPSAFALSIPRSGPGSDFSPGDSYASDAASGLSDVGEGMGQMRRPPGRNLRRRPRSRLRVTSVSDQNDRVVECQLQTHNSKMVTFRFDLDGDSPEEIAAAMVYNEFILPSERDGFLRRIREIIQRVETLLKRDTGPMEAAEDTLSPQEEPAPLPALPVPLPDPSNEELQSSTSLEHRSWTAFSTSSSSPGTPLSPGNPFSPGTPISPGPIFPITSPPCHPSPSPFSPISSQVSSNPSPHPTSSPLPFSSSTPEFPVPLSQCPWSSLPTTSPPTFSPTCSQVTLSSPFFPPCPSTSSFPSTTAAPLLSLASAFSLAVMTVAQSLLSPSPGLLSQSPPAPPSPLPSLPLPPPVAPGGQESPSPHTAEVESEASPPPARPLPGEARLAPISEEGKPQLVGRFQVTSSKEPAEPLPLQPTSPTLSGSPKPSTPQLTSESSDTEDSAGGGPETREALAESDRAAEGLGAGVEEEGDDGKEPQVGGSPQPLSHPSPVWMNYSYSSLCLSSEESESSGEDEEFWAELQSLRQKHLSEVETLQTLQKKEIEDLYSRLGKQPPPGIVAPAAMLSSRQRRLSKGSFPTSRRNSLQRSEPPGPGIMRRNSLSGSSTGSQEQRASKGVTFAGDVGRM
Sequence of Glycogen synthase kinase-3 alpha (Homo sapiens) (P49840 2-483 limits assumed): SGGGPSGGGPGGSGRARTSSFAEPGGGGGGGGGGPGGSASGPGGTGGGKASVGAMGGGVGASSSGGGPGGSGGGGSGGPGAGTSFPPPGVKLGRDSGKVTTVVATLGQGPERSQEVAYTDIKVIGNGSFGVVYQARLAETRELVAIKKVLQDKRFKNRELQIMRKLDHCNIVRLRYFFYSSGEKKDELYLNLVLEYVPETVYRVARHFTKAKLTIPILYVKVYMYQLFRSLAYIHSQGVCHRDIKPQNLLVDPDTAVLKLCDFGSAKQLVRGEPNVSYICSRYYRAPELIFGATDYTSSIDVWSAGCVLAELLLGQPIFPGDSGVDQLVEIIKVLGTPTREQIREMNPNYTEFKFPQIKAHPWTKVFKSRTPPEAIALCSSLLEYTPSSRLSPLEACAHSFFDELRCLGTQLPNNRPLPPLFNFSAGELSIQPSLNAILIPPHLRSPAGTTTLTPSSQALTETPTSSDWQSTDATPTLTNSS
Sequence of Tyrosine-protein kinase Srms (Homo sapiens) (Q9H3Y6 whole entry): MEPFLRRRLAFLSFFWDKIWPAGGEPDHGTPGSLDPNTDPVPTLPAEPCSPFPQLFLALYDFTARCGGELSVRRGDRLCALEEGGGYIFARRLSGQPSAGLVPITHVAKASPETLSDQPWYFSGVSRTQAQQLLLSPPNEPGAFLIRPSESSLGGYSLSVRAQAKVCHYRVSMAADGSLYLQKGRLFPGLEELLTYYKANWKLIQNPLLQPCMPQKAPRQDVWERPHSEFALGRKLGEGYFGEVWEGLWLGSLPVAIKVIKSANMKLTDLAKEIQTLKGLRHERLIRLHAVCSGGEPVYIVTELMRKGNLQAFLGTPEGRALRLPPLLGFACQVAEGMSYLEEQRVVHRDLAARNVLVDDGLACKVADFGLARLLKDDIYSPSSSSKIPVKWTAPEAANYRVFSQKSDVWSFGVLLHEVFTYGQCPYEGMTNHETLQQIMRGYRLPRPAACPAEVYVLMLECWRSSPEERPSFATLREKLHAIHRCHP
Sequence of Phosphorylase b kinase gamma catalytic chain, skeletal muscle/heart isoform (Homo sapiens) (Q16816 whole entry, looked up, canonical isoform): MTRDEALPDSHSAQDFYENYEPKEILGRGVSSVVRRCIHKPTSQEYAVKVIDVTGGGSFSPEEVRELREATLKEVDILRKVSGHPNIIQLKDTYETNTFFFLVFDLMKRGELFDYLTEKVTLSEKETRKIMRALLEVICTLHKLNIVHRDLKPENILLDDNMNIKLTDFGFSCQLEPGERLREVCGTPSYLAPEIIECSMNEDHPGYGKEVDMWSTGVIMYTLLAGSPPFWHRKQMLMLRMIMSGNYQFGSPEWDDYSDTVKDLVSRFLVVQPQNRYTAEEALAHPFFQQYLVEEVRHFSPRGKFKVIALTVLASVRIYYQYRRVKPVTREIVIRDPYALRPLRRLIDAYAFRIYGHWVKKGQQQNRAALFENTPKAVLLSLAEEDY

## NS(=O)(=O)c1cc(NC(=O)C2(c3ccccc3Cl)CC2)ccc1Oc1cccc(Cl)c1 [BAY-207]
[1]
  residual activity: 67%
[2]
  residual activity: 74%
[3]
  residual activity: 68%
[4]
  residual activity: 95%
[5]
  residual activity: 90%
[6]
  residual activity: 91%
[7]
  residual activity: 100%
[8]
  residual activity: 89%
[9]
  residual activity: 100%
[10]
  residual activity: 89%
[11]
  residual activity: 65%
[12]
  residual activity: 81%
[13]
  residual activity: 56%
[14]
  residual activity: 96%
[15]
  residual activity: 92%
[16]
  residual activity: 100%
[17]
  residual activity: 100%
[18]
  residual activity: 100%
[19]
  residual activity: 77%
[20]
  residual activity: 90%
[21]
  residual activity: 100%
[22]
  residual activity: 95%
[23]
  residual activity: 73%
[24]
  residual activity: 83%
[25]
  residual activity: 100%
[26]
  residual activity: 80%
[27]
  residual activity: 88%
[28]
  residual activity: 100%
[29]
  residual activity: 80%
[30]
  inhibition: 27%
[31]
  residual activity: 100%
[32]
  residual activity: 90%
[33]
  residual activity: 87%
[34]
  inhibition: 8.86%
[35]
  residual activity: 32%
[36]
  residual activity: 100%
[37]
  residual activity: 100%
[38]
  inhibition: -1.95%
[39]
  residual activity: 90%

## NS(=O)(=O)c1cc(NC(=O)Cc2ccccc2)ccc1Oc1cccc(Cl)c1 [BAY-1797]
[1]
  residual activity: 79%
[2]
  residual activity: 87%
[3]
  residual activity: 94%
[4]
  residual activity: 100%
[5]
  residual activity: 63%
[6]
  residual activity: 100%
[7]
  residual activity: 67%
[8]
  residual activity: 87%
[9]
  residual activity: 93%
[10]
  residual activity: 90%
[11]
  residual activity: 96%
[12]
  residual activity: 0%
[13]
  residual activity: 92%
[14]
  residual activity: 86%
[15]
  residual activity: 98%
[16]
  residual activity: 72%
[17]
  residual activity: 86%
[18]
  residual activity: 80%
[19]
  residual activity: 78%
[20]
  residual activity: 86%
[21]
  residual activity: 77%
[22]
  residual activity: 84%
[23]
  residual activity: 95%
[24]
  residual activity: 99%
[25]
  residual activity: 72%
[26]
  residual activity: 100%
[27]
  residual activity: 90%
[28]
  residual activity: 100%
[29]
  residual activity: 70%
[30]
  inhibition: 28.4%
[31]
  residual activity: 82%
[32]
  residual activity: 93%
[33]
  residual activity: 92%
[34]
  inhibition: 22.7%
[35]
  residual activity: 55%
[36]
  residual activity: 93%
[37]
  residual activity: 85%
[38]
  inhibition: 10.2%
[39]
  residual activity: 89%
